Data published in PubChem BioAssay AID194 (DTP/NCI, 2004).
“And” between values parts separate entries of the source, which are not always exact repeats. Equal entries are not always repeated. Inconclusive results are not listed. *1 amine or outer side, *2 acyl side, *3 side chain or, on linkers, in order; H or OH if unused. Where a SMILES comes first, the peptide text is derived from it. Bridges are numbered along the chain shown (N, C = ends). Roman numbers before positions name the chains, in order. [ ]: non-standard residue; d: D form. Actinocin(9to1) = Cc1c2oc3c(C)ccc(C(=O)[*:1])c3nc-2c(C(=O)[*:2])c(N)c1=O; aThr = C[C@H](O)[C@H](N)C(=O)O; NMeV = CN[C@H](C(=O)O)C(C)C; Sar = CNCC(=O)O

Test system: BDF1 mice, B16 melanoma s.c., survival/tumor T/C
Assay: NCI In Vivo Anticancer Drug Screen. Data for tumor model B16 Melanoma (subcutaneous) in B6D2F1 (BDF1) mice
Procedure: The antitumor activity of compounds was measured in mice bearing transplantable tumors. Survival or tumor size were measured and the results are expressed as the measurement made in the treated group (T) divided by the measurement made in the vehicle treated control group (C). The tumor model used in this assay is B16 Melanoma (subcutaneous) in B6D2F1 (BDF1) mice

In the case of `Cc1c2oc3c(C)ccc(C(=O)N[C@@H]4C(=O)N[C@H](C(C)C)C(=O)N5CCC[C@H]5C(=O)N(C)CC(=O)N(C)[C@@H](C(C)C)C(=O)O[C@H]4C)c3nc-2c(C(=O)N[C@@H]2C(=O)N[C@H](C(C)C)C(=O)N3CCC[C@H]3C(=O)N(C)CC(=O)N(C)[C@@H](C(C)C)C(=O)O[C@H]2C)c(N)c1=O` (I: [aThr][dV]P[Sar][NMeV] / II: [aThr][dV]P[Sar][NMeV]; ester I:1-I:C, II:1-II:C; linker I:N-II:N via Actinocin(9to1)), the T/C (endpoint: median tumor weight (est.), dose: 100.0 micrograms/kg/injection, schedule: Q01DX009 (ip), vehicle: saline, higher = larger tumour) is reported as 38 % of control.
In the case of `CO[C@H]1/C=C/O[C@@]2(C)Oc3c(C)c(O)c4c(O)c(c(/C=N/N5C(C)CN(Cc6ccccc6)CC5C)c(O)c4c3C2=O)NC(=O)/C(C)=C\C=C\[C@H](C)[C@H](O)[C@@H](C)[C@@H](O)[C@@H](C)[C@H](OC(C)=O)[C@@H]1C` (stereo not given in full), the T/C (endpoint: median survival time, dose: 50.0 mg/kg/injection, schedule: Q02DX Z (oral), vehicle: Klucel (hydroxypropylcellulose) (HPC), higher = longer survival) is reported as 101 % of control, the T/C (endpoint: median survival time, dose: 100.0 mg/kg/injection, schedule: Q02DX Z (oral), vehicle: Klucel (hydroxypropylcellulose) (HPC), higher = longer survival) is reported as 89 % of control and the T/C (endpoint: median survival time, dose: 200.0 mg/kg/injection, schedule: Q02DX Z (oral), vehicle: Klucel (hydroxypropylcellulose) (HPC), higher = longer survival) is reported as 86 % of control.
For `CC1CCC(NC(=O)N(CCCl)N=O)CC1` (stereo not given), the T/C (endpoint: median survival time, dose: 2.0 mg/kg/injection, schedule: Q02DX009 (ip), vehicle: Klucel (hydroxypropylcellulose) (HPC), higher = longer survival) was 113 % of control, the T/C (endpoint: median survival time, dose: 2.5 mg/kg/injection, schedule: Q04DX003 (ip), vehicle: other, higher = longer survival) was 123 % of control and the T/C (endpoint: median survival time, dose: 4.0 mg/kg/injection, schedule: Q01DX001 (ip), vehicle: saline with Tween-80, higher = longer survival) was 87 % of control. For the same molecule, the T/C (endpoint: median survival time, dose: 5.0 mg/kg/injection, schedule: Q04DX003 (ip), vehicle: other, higher = longer survival) was 104 % of control, the T/C (endpoint: median survival time, dose: 8.0 mg/kg/injection, schedule: Q01DX001 (ip), vehicle: saline with Tween-80, higher = longer survival) was 87 % of control and 120 % of control and the T/C (endpoint: median survival time, dose: 8.0 mg/kg/injection, schedule: Q02DX009 (ip), vehicle: Klucel (hydroxypropylcellulose) (HPC), higher = longer survival) was 189 % of control. The T/C (endpoint: median survival time, dose: 8.0 mg/kg/injection, schedule: Q04DX003 (ip), vehicle: saline with Tween-80, higher = longer survival) was 106 % of control, the T/C (endpoint: median survival time, dose: 10.0 mg/kg/injection, schedule: Q01DX001 (ip), vehicle: other, higher = longer survival) was 111 % of control and the T/C (endpoint: median survival time, dose: 12.0 mg/kg/injection, schedule: Q04DX003 (ip), vehicle: saline with Tween-80, higher = longer survival) was 101 % of control. For the same molecule, the T/C (endpoint: median survival time, dose: 16.0 mg/kg/injection, schedule: Q01DX001 (ip), vehicle: saline with Tween-80, higher = longer survival) was 124 % of control, the T/C (endpoint: median survival time, dose: 16.0 mg/kg/injection, schedule: Q02DX009 (ip), vehicle: Klucel (hydroxypropylcellulose) (HPC), higher = longer survival) was 109 % of control and the T/C (endpoint: median survival time, dose: 18.0 mg/kg/injection, schedule: Q01DX001 (ip), vehicle: saline with Tween-80, higher = longer survival) was 120 % of control. For the same molecule, the T/C (endpoint: median survival time, dose: 18.0 mg/kg/injection, schedule: Q04DX003 (ip), vehicle: saline with Tween-80, higher = longer survival) was 192 % of control, the T/C (endpoint: median survival time, dose: 20.0 mg/kg/injection, schedule: Q01DX001 (ip), vehicle: other, higher = longer survival) was 192 % of control and the T/C (endpoint: median survival time, dose: 20.0 mg/kg/injection, schedule: Q04DX003 (ip), vehicle: other, higher = longer survival) was 223 % of control and 256 % of control. The T/C (endpoint: median survival time, dose: 32.0 mg/kg/injection, schedule: Q01DX001 (ip), vehicle: saline with Tween-80, higher = longer survival) was 157 % of control, the T/C (endpoint: median survival time, dose: 36.0 mg/kg/injection, schedule: Q01DX001 (ip), vehicle: saline with Tween-80, higher = longer survival) was 213 % of control and the T/C (endpoint: median tumor weight (est.), dose: 15.0 mg/kg/injection, schedule: Q01DX001 (ip), vehicle: Klucel (hydroxypropylcellulose) (HPC), higher = larger tumour) was 50 % of control and 72 % of control. The T/C (endpoint: median tumor weight (est.), dose: 30.0 mg/kg/injection, schedule: Q01DX001 (ip), vehicle: Klucel (hydroxypropylcellulose) (HPC), higher = larger tumour) was 68 % of control and the T/C (endpoint: median tumor weight (est.), dose: 60.0 mg/kg/injection, schedule: Q01DX001 (ip), vehicle: Klucel (hydroxypropylcellulose) (HPC), higher = larger tumour) was 45 % of control.
In the case of `O=C(O)CCNSc1ccccc1[N+](=O)[O-]`, the T/C (endpoint: median survival time, dose: 12.5 mg/kg/injection, schedule: Q01DX009 (ip), vehicle: saline with Tween-80, higher = longer survival) is reported as 105 % of control, the T/C (endpoint: median survival time, dose: 25.0 mg/kg/injection, schedule: Q01DX009 (ip), vehicle: saline with Tween-80, higher = longer survival) is reported as 109 % of control and the T/C (endpoint: median survival time, dose: 50.0 mg/kg/injection, schedule: Q01DX009 (ip), vehicle: saline with Tween-80, higher = longer survival) is reported as 114 % of control. The T/C (endpoint: median survival time, dose: 100.0 mg/kg/injection, schedule: Q01DX009 (ip), vehicle: saline with Tween-80, higher = longer survival) was 100 % of control.
In the case of `COC(=O)C[C@](O)(CCCC(C)(C)O)C(=O)O[C@@H]1C(OC)=C[C@]23CCCN2CCc2cc4c(cc2[C@H]13)OCO4`, the T/C (endpoint: median survival time, dose: 0.25 mg/kg/injection, schedule: Q01DX009 (ip), vehicle: acid diluted with saline, higher = longer survival) is reported as 118 % of control, the T/C (endpoint: median survival time, dose: 0.5 mg/kg/injection, schedule: Q01DX009 (ip), vehicle: acid diluted with saline, higher = longer survival) is reported as 100 % of control and the T/C (endpoint: median survival time, dose: 0.7 mg/kg/injection, schedule: Q01DX009 (ip), vehicle: acid diluted with saline, higher = longer survival) is reported as 101 % of control. The T/C (endpoint: median survival time, dose: 1.0 mg/kg/injection, schedule: Q01DX009 (ip), vehicle: acid diluted with saline, higher = longer survival) was 103 % of control and the T/C (endpoint: median survival time, dose: 1.5 mg/kg/injection, schedule: Q01DX009 (ip), vehicle: acid diluted with saline, higher = longer survival) was 101 % of control.
In the case of `O=[N+]([O-])c1nccn1CC(O)CO` (stereo not given), the T/C (endpoint: median survival time, dose: 1000.0 mg/kg/injection, schedule: Q01DX001 (ip), vehicle: saline, higher = longer survival) is reported as 91 % of control and the T/C (endpoint: median survival time, dose: 2500.0 mg/kg/injection, schedule: Q01DX001 (ip), vehicle: saline, higher = longer survival) is reported as 85 % of control.
